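These data come from cells grown in 96-well plates and exposed to compound for 48 hours at five concentrations. GI50 is the concentration that inhibits growth by half. TGI: concentration producing complete growth inhibition.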
How the values were obtained:
Assay in all cases: NCI tumour cell line growth inhibition, 48 h
CAKI-1 renal = test system: CAKI-1 renal
HCT-116 colon = test system: HCT-116 colon
NCI-H226 lung = test system: NCI-H226 lung
MCF7 breast = test system: MCF7 breast
HCC-2998 colon = test system: HCC-2998 colon
T-47D breast = test system: T-47D breast
DU-145 prostate = test system: DU-145 prostate
MDA-MB-435 = test system: MDA-MB-435
SF-268 CNS = test system: SF-268 CNS
A549 NSCLC = test system: A549 NSCLC
EKVX NSCLC = test system: EKVX NSCLC
OVCAR-8 ovarian = test system: OVCAR-8 ovarian
SNB-78 CNS = test system: SNB-78 CNS
HOP-18 NSCLC = test system: HOP-18 NSCLC

Row | Compound | TGI (CAKI-1 renal) [µM] | TGI (HCT-116 colon) [µM] | TGI (NCI-H226 lung) [µM] | TGI (MCF7 breast) [µM] | TGI (HCC-2998 colon) [µM] | TGI (T-47D breast) [µM] | TGI (DU-145 prostate) [µM] | TGI (MDA-MB-435) [µM] | TGI (SF-268 CNS) [µM] | TGI (A549 NSCLC) [µM] | TGI (EKVX NSCLC) [µM] | GI50 (CAKI-1 renal) [µM] | GI50 (OVCAR-8 ovarian) [µM] | TGI (OVCAR-8 ovarian) [µM] | GI50 (SF-268 CNS) [µM] | GI50 (HCC-2998 colon) [µM] | GI50 (DU-145 prostate) [µM] | GI50 (MDA-MB-435) [µM] | TGI (SNB-78 CNS) [µM] | TGI (HOP-18 NSCLC) [µM]
1 | Cc1ccc(Cl)cc1N=NC(=O)NNc1cc(Cl)ccc1C | 45.1 | 51.6 | 43.1 | 80.7 | > 100 | > 100 | 58.3 | 99 | – | – | – | – | – | – | – | – | – | – | – | –
2 | CCOC(=O)NC(Nc1cc(Cl)ccc1OC)(C(F)(F)F)C(F)(F)F | > 100 | > 100 | > 100 | > 100 | > 100 | > 100 | > 100 | > 100 | > 100 | > 100 | > 100 | – | – | – | – | – | – | – | – | –
3 | COc1cccc2c1C(=O)c1c(O)c3c(c(O)c1C2=O)C[C@@](O)(C(=O)COC(=O)c1ccccc1)C[C@@H]3OC1CC(N)C(O)C(C)O1 (stereo not given in full) | 2.11 | – | – | – | 2.32 | – | 1.1 | 0.284 | 1.34 | – | – | 0.701 | 0.154 | 1.18 | 0.173 | 0.421 | 0.252 | 0.137 | – | –
4 | O=C(NN1C(=O)C(Cl)C1c1cccc([N+](=O)[O-])c1)c1ccccc1O (stereo not given) | – | > 100 | – | – | – | – | – | – | > 100 | > 100 | > 100 | – | – | > 100 | – | – | – | – | – | –
5 | CCOC(=O)/C=C/c1c(C)[nH]c(=O)[nH]c1=O | > 234 | > 250 | > 250 | > 250 | > 250 | – | – | – | > 250 | > 250 | > 250 | – | – | > 250 | – | – | – | – | > 250 | > 250
6 | C/C(=N\NC(=S)N1CCC(N2CCCCC2)CC1)c1ccccn1 | 5.87 | 7.02 | – | 10.6 | > 24.3 | 7.01 | 11.2 | 6 | 12.9 | 10.3 | 12.1 | – | – | 11.7 | – | – | – | – | 27.5 | 14.5
7 | O=C1C(CO)=C[C@H](O)[C@H]2O[C@@H]12 | 514 | 225 | 371 | 271 | > 508 | – | – | – | 298 | > 394 | 215 | – | – | 325 | – | – | – | – | 480 | > 625
8 | c1ccc2c(c1)NCc1cc3ccccc3nc1O2 | > 100 | > 100 | > 100 | > 100 | > 100 | – | – | – | > 100 | > 100 | > 100 | – | – | > 100 | – | – | – | – | > 100 | > 100
9 | c1ccc2c(c1)c1ccccc1n2Cn1c2ccccc2c2ccccc21 | > 100 | – | > 100 | – | – | > 100 | > 100 | > 100 | > 100 | > 100 | > 100 | – | – | > 100 | – | – | – | – | – | –
10 | COc1cc(-c2ccc(N=Nc3ccc4c(S(=O)(=O)O)cc(S(=O)(=O)O)c(N)c4c3O)c(OC)c2)ccc1N=Nc1ccc2c(S(=O)(=O)O)cc(S(=O)(=O)O)c(N)c2c1O | – | > 100 | > 100 | > 100 | > 100 | – | – | – | > 100 | > 100 | > 100 | – | – | > 100 | – | – | – | – | > 100 | 98.1
11 | O=C1CCC[C@H]2O[C@@H](COC(=O)c3ccccc3)C[C@H]2O1 | > 100 | – | > 100 | > 100 | – | > 100 | > 100 | > 100 | > 100 | > 100 | > 100 | – | – | > 100 | – | – | – | – | – | –
12 | c1cc2c3c(c1)c1cc4c(cc1c[n+]3CC2)OCO4 | 120 | 75.9 | 4.69 | 30.3 | 10.4 | – | – | – | 5.26 | 10.2 | 14.4 | – | – | 25.3 | – | – | – | – | 47.1 | 88.4
13 | O=C(N/N=C\c1cccc2ccccc12)Nc1ccccc1 | > 100 | > 100 | > 100 | > 100 | – | > 100 | > 100 | > 100 | – | – | – | – | – | > 100 | – | – | – | – | – | –
